Nc1cc([N+](=O)[O-])ccc1Cl
solubility (mole fraction)
Conditions	273.15 K	278.15 K	283.15 K	288.15 K	293.15 K	298.15 K	303.15 K	308.15 K	313.15 K
in 1,4-dioxane	–	–	–	0.11	0.119	0.13	0.142	0.154	0.169
in 2-butanone	0.0877	0.0973	0.108	0.119	0.13	0.141	0.153	0.165	0.179
in NMP	0.155	0.161	0.166	0.173	0.179	0.186	0.193	0.201	0.209
in acetone	0.103	0.112	0.122	0.133	0.144	0.156	0.168	0.182	0.197
in acetonitrile	0.0222	0.0277	0.0342	0.0413	0.0495	0.0579	0.0671	0.077	0.0877
in ethanol	0.0097	0.0112	0.0129	0.0149	0.0173	0.0198	0.0227	0.0258	0.0297
in ethyl acetate	0.0765	0.0836	0.0915	0.0991	0.107	0.116	0.126	0.135	0.145
in isopropanol	0.0047	0.0059	0.0074	0.0091	0.0109	0.0132	0.0158	0.0188	0.0226
in methanol	0.0071	0.0085	0.01	0.0118	0.0141	0.0165	0.0193	0.0227	0.0263
in n-butanol	0.0055	0.0069	0.0086	0.0104	0.0128	0.0153	0.0182	0.0213	0.0252
in n-propanol	0.008	0.0094	0.011	0.0129	0.0152	0.0177	0.0209	0.0246	0.0283
in toluene	0.0118	0.0134	0.0153	0.0174	0.0199	0.0231	0.0268	0.0309	0.0352
